Test results from article PMC5014630 (Molecular pharmaceutics, 2016).

How the values were obtained:
[1] = Permeability across iPSC-derived BMEC Transwell in vitro BBB model; conditions: human
BCRP = target: T1, BCRP (Homo sapiens, UniProt Q9UNQ0); assay: Permeability with BCRP inhibitor Ko143 in iPSC-derived BMEC; format: in vitro ADME; conditions: 1 μM Ko143, 60 min pre-incubation; normalized to no inhibitor
T1 sequence (Q9UNQ0 1-655): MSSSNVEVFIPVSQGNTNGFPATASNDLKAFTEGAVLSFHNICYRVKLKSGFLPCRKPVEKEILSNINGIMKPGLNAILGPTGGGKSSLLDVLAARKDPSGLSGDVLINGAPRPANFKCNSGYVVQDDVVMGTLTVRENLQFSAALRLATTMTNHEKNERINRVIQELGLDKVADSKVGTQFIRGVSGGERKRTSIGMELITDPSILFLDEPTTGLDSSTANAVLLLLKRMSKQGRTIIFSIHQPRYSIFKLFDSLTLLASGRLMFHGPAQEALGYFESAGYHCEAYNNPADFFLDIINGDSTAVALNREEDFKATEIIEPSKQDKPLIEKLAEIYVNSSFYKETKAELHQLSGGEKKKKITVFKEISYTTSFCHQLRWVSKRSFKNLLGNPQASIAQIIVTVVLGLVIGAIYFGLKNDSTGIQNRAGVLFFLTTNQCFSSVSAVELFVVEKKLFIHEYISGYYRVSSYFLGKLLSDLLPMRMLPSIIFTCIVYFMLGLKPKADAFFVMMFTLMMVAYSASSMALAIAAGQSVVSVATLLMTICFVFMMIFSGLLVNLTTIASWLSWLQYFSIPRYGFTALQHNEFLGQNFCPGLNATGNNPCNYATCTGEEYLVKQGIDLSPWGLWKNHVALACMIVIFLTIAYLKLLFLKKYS

iPSC-derived BMECs [2] = assay: Directional; format: in vitro ADME, human; conditions: normalized to AB permeability; Student's t-test
MRPs = assay: Permeability with pan-MRP inhibitor MK571 in iPSC-derived BMEC; format: in vitro ADME, human; conditions: 10 μM MK571, 60 min pre-incubation; normalized to no inhibitor
P-gp = P-gp (Homo sapiens, UniProt P08183); assay: Permeability with P-gp inhibitor PSC833 in iPSC-derived BMEC; format: in vitro ADME; conditions: 1 μM PSC833, 60 min pre-incubation; normalized to no inhibitor
iPSC-derived BMECs [3] = assay: Temperature dependence of permeability; format: in vitro ADME, human; conditions: normalized to 37°C condition; Student's t-test
iPSC-derived BMECs [4] = assay: Permeability across iPSC-derived BMEC Transwell in vitro BBB model; conditions: for permeability (Pe) across iPSC-BMEC: Transwell, APC analogs 1 μM in PM20, 2 hours, mean±S.E., n≥3
[5] = Experimental octanol/water LogD; format: physicochemical; conditions: pH 7.4, octanol:buffer

P-gp, sequence (P08183 whole entry): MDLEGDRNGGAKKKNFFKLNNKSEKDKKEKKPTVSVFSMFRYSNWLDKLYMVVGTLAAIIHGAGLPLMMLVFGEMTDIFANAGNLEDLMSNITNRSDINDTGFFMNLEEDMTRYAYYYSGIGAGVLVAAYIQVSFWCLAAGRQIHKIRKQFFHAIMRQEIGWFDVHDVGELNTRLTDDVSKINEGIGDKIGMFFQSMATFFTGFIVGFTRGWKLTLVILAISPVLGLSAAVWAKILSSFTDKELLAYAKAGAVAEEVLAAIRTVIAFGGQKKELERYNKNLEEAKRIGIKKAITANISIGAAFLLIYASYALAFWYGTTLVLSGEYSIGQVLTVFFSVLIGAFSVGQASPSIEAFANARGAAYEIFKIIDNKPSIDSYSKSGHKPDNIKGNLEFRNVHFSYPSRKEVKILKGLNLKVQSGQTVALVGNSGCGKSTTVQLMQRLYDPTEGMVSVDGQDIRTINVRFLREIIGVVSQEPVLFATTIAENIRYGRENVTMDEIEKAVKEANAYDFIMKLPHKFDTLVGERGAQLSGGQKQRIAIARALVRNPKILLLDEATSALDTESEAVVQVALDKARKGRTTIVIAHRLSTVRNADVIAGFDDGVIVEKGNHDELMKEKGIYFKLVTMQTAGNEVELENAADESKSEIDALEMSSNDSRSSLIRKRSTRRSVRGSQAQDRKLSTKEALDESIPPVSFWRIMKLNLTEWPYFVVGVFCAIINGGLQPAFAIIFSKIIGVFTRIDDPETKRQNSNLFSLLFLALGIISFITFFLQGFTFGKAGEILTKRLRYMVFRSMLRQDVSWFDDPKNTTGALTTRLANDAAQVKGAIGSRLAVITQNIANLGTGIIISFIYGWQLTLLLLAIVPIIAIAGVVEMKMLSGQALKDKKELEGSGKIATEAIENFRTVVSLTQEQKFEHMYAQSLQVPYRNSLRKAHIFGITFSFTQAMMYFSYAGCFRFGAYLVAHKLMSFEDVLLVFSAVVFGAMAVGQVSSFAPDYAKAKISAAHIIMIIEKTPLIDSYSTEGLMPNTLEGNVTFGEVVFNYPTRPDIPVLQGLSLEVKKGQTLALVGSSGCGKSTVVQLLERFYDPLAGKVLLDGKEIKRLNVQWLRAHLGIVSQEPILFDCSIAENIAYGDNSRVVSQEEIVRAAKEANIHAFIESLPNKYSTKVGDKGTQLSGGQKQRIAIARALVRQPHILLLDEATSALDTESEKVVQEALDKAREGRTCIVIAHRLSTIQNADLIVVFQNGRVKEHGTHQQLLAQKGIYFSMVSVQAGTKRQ

| Papp at 2 h, 1 μM [1] [×10⁻⁶ cm/s] | permeability change with PSC833 (P-gp inhibition) (P-gp) | SMILES | permeability change with Ko143 (BCRP inhibition) (BCRP) | polarized flux, basolateral-apical (BA) vs apical-basolateral (AB) (iPSC-derived BMECs [2]) | permeability change with MK571 (MRP inhibition) (MRPs) | in vitro BBB permeability at 4°C compared to 37°C (iPSC-derived BMECs [3]) | permeability (Pe) across iPSC-BMEC (iPSC-derived BMECs [4]) | fold increase of experimental LogD compared to parent CLR1404 [5] | fold reduced permeability compared with CLR1501 (iPSC-derived BMECs [4]; iPSC-derived BMEC Transwell, p<0.05) [fold] |
| --- | --- | --- | --- | --- | --- | --- | --- | --- | --- |
| 5.83 | did not affect | C[N+](C)(C)CCOP(=O)([O-])OCCCCCCCCCCCCCCCCCCc1ccc(I)cc1 [CLR1404, 18-(p-iodophenyl) octadecylphosphocholine] | did not affect | no significant evidence of polarized efflux | did not affect | slight, but statistically insignificant, increase | – | – | – |
| – | – | C[N+](C)(C)CCOP(=O)([O-])OCCCCCCCCCCCCCCCCCCc1ccc(C2=C3C=CC=[N+]3[B-](F)(F)n3cccc32)cc1 [CLR1501] | selectively increased | significantly polarized flux in the brain-to-blood (BA) direction | selectively increased | significantly higher | 54±3.2 ×10^−5 cm/min | greater than 2 fold | – |
| – | – | CN1/C(=C/C=C2\CCCC(/C=C/C3=[N+](C)c4ccccc4C3(C)C)=C2c2ccc(CCCCCCCCCCCCCCCCCCOP(=O)([O-])OCC[N+](C)(C)C)cc2)C(C)(C)c2ccccc21.[Cl-] [CLR1502] | A similar pattern was observed | significantly polarized flux in the brain-to-blood (BA) direction | A similar pattern was observed | significantly higher | 26±4.9 ×10^−5 cm/min | greater than 2 fold | 2 |
